Source: patent US8921552B2, “Benzothiazole hybrids useful as anticancer agents and process for the preparation thereof” (Council of Scientific & Industrial Research, priority 2011, dated 2014)

Legend:
[1] = test system: A-549; assay: In vitro cytotoxicity, SRB assay, lung cancer cell line A-549; type: cell-based, human; details: A-549 (lung); for inhibition at 10 µM: Homo sapiens, A549, 48 h exposure, read-out: % of growth inhibition
Description: (§1) The benzothiazole hybrids has been tested against seven human tumor cell lines derived from six cancer types (lung cancer, colon cancer, CNS cancer, ovarian cancer, prostate cancer and breast cancer). For these compounds results are expressed as percent of cell growth inhibition relative to that of untreated control cells.

[2] = test system: MCF7; assay: In vitro cytotoxicity, SRB assay, breast cancer cell line MCF7; type: cell-based, human; details: for inhibition at 10 µM: Homo sapiens, 48 h exposure, read-out: % of growth inhibition
Description: as §1

[3] = test system: IGR-OV-1; assay: In vitro cytotoxicity, SRB assay, ovarian cancer cell line IGR-OV-1; type: cell-based, human; details: IGR-OV-1 (ovarian); for inhibition at 10 µM: Homo sapiens, IGROV-1, 48 h exposure, read-out: % of growth inhibition
Description: as §1

[4] = test system: SW-620; assay: In vitro cytotoxicity, SRB assay, colon cancer cell line SW-620; type: cell-based; details: Homo sapiens, SW-620 (colon), 48 h exposure, read-out: % of growth inhibition
Description: as §1, with “cells. A protocol of 48 h continuous drug exposure has been used, and a sulforhodamine B (SRB) protein assay was used to estimate cell viability or growth.” for “cells.”
(§2) The compounds 9b, 9h, 9m, 9r, 15c, 15h, 15m, 15r, 10b, 10h, 10m, 10r, 16c, 16h and 16m were evaluated for in vitro anticancer activity against seven human tumor cells derived from six cancer types (lung cancer, colon cancer, CNS cancer, ovarian cancer, prostate cancer and breast cancer) at concentration of 10 μM and the results are shown in Table 1.

[5] = test system: Colo-205; assay: In vitro cytotoxicity, SRB assay, colon cancer cell line Colo-205; type: cell-based, human; details: Colo-205 (colon); for inhibition at 10 µM: Homo sapiens, 48 h exposure, read-out: % of growth inhibition
Description: as §1

[6] = test system: SF-295; assay: In vitro cytotoxicity, SRB assay, CNS cancer cell line SF-295; type: cell-based, human; details: SF-295 (CNS); for inhibition at 10 µM: Homo sapiens, 48 h exposure, read-out: % of growth inhibition
Description: as §1

[7] = test system: PC-3; assay: In vitro cytotoxicity, SRB assay, prostate cancer cell line PC-3; type: cell-based, human; details: PC-3 (prostate); for inhibition at 10 µM: Homo sapiens, 48 h exposure, read-out: % of growth inhibition
Description: as §1

[8] = test system: SW-620; assay: In vitro cytotoxicity, SRB assay, colon cancer cell line SW-620; type: cell-based, human; details: SW-620 (colon), reference drug at 1 μM
[9] = test system: human tumor cell lines; assay: In vitro anticancer activity, panel of seven human tumor cell lines (SRB assay); type: cell-based; details: Homo sapiens; range over the cell lines, 10 μM, exposure period of at least 48 hrs; read-out: percentage growth inhibition for invitro anticancer activity
Description: as §1, with “cells. A protocol of 48 h continuous drug exposure has been used, and a sulforhodamine B (SRB) protein assay was used to estimate cell viability or growth.” for “cells.”
as §2

Compound	inhibition at 10 µM [1] [%]	inhibition at 10 µM [2] [%]	inhibition at 10 µM [3] [%]	inhibition at 10 µM [4] [%]	inhibition at 10 µM [5] [%]	inhibition at 10 µM [6] [%]	inhibition at 10 µM [7] [%]	% of growth inhibition [8] [%]	% of growth inhibition ([1]; reference drug at 1 μM) [%]	% of growth inhibition ([2]; reference drug at 1 μM) [%]	% of growth inhibition ([3]; reference drug at 1 μM) [%]	% of growth inhibition ([5]; reference drug at 1 μM) [%]	% of growth inhibition ([6]; reference drug at 1 μM) [%]	% of growth inhibition ([7]; reference drug at 1 μM) [%]	inhibition at 10 µM [9] [%]
O=c1[nH]cc(F)c(=O)[nH]1 [5-Fluoro uracil, reference compound]	64	66	47	41	55	9	29								
COc1cccc2c1C(=O)c1c(O)c3c(c(O)c1C2=O)C[C@@](O)(C(=O)CO)C[C@@H]3O[C@H]1C[C@H](N)[C@H](O)[C@H](C)O1 [Adriyamycin, reference compound]								21	95	69	78	77	55	55	
COc1ccc(/C=C\c2cc(OC)c(OC)c(OC)c2)cc1OCCCCOc1ccc(-c2nc3ccccc3s2)cc1 [Compound 9h, 2-[4-(4-{2-methoxy-5-[(Z)-2-(3,4,5-trimethoxyphenyl)-1-ethenyl]phenoxy}butoxy)phenyl]-1,3-benzothiazole]	63	64	54		15	34	65								1 to 100
COc1ccc(/C=C\c2cc(OC)c(OC)c(OC)c2)cc1OCCCCOc1cc(-c2nc3ccccc3s2)ccc1OC [Compound 9m, 2-[4-methoxy-3-(4-{2-methoxy-5-[(Z)-2-(3,4,5-trimethoxyphenyl)-1-ethenyl]phenoxy}butoxy)phenyl]-1,3-benzothiazole]	73	64	58		70	44	68								1 to 100
